Measured values as given in publication PMC11125039, “An Effective Modification Strategy to Build Multifunctional Peptides Based on a Trypsin Inhibitory Peptide of the Kunitz Family” (Pharmaceutics, 2024).
Like-named read-outs stand apart in the source and are kept apart here. Bridge positions count the residues as written; N and C are the ends. Peptide text beside a SMILES is read from it.

How the values were obtained:
[1] = tested on: MCF-7; conditions: MCF-7, 24 h, MTT
Description: (§4) The tested human cell lines in this assay included cancerous and non-cancerous cell lines: a human breast cancer cell line (MCF-7), a human lung carcinoma cell line (H838), a human colorectal carcinoma cell line (HCT116), and a human glioblastoma astrocytoma cell line (U251MG); these cell lines were incubated with the peptides at concentrations between 10^−4 to 10^−9 M to study their antiproliferation ability against cancer cells. Also, for the safety evaluation, a human skin keratinocyte cell line (HaCaT) was selected to investigate the cytotoxicity of peptides against normal human cells.
(§5) At first, after the stock cells were revived, they were transferred into a 75 mL flask with 10 mL of the corresponding culture medium and cultured for 3–5 days at 37 °C until most cells had attached to the flask wall. Then, the culture medium was removed, and 10 mL of PBS was used to wash the wall twice and discarded. Subsequently, 3–4 mL of a trypsin solution was added for 2–3 min to detach the cells from the container wall and then 8–10 mL of FBS was added to stop the digestion reaction. The cell suspension was transferred into a 15 mL tube and centrifuged. The supernatant was removed and 4 mL of complete growth medium was added to this tube to prepare a stock cell suspension. […] After 10 min of shaking, the cell viability in each well was read at a wavelength of 570 nm.

[2] = tested on: H838; assay: Antiproliferation assay (MTT); format: cell-based, human; conditions: H838, 24 h
Description: as §4, §5

[3] = tested on: E. coli (NCTC 13846); assay: SYTOX Green permeability assay; format: cell-based, Escherichia coli; conditions: at the MIC
Description: (§1) The SYTOX^TM Green Nucleic Acid Stain (ThermoFisher Scientific, Waltham, MA, USA) assay was used to investigate the antibacterial mechanism of the peptides as they cannot cross intact membranes, but can easily penetrate the damaged membranes characteristic of dead cells.
(§2) After being sub-cultured for 2 h, the bacteria were centrifuged at 1000× g for 10 min at 4 °C; then, the culture medium was discarded. […] After a third wash, the bacteria were diluted with the same solution until they reached the logarithmic growth phase in which the OD value just reached 0.70 at a wavelength of 590 nm. […] Finally, 10 μL of SYTOX^TM green nucleic acid stain (5 μM) was added to the plate and the mixture was incubated at 37 °C under dark conditions for another 5 min. […] Bacterial medium with 5% TSB acted as the negative control; bacterial medium treated with a melittin peptide solution (8 μM) was set as the positive control; 5% TSB alone was the blank control.

[4] = tested on: E. coli (BAA 2340); assay: SYTOX Green permeability assay; format: cell-based, Escherichia coli; conditions: at the MIC
Description: as §1, §2

[5] = tested on: E. coli (ATCC CRM 8739); assay: SYTOX Green permeability assay; format: cell-based, Escherichia coli; conditions: at the MIC
Description: as §1, §2

[6] = tested on: HCT116; assay: Antiproliferation assay (MTT); format: cell-based, human; conditions: HCT116, 24 h
Description: as §4
At first, after the stock cells were revived, they were transferred into a 75 mL flask with 10 mL of the corresponding culture medium and cultured for 3–5 days at 37 °C until most cells had attached to the flask wall. Then, the culture medium was removed, and 10 mL of PBS was used to wash the wall twice and discarded. Subsequently, 3–4 mL of a trypsin solution was added for 2–3 min to detach the cells from the container wall and then 8–10 mL of FBS was added to stop the digestion reaction. The cell suspension was transferred into a 15 mL tube and centrifuged. The supernatant was removed and 4 mL of complete growth medium was added to this tube to prepare a stock cell suspension. Approximately 10 µL of a mixture containing an equal volume of trypan blue and cell medium was dropped into a chamber to measure the density of cells under the microscope. Based on the cell density, the cell suspension was diluted with foetal bovine serum (FBS) (Sigma-Aldrich, St. Louis, MO, USA) to the standard cell density (H838, MCF-7: 8 × 10^4; U251MG: 5 × 10^4; HCT116: 2 × 10^5; HaCaT: 2 ×10^5 cells/mL). Then, it was seeded into a 96-well plate at 100 μL/well. After 20–24 h incubation, 100 μL of serum-free medium was used to replace the previous FBS medium and the plate was incubated another 4 h for cell starvation. At the same time, the peptide was dissolved in DMSO at a concentration of 10^−2 M and then mixed with the serum-free medium at working concentrations ranging from 10^−7 to 10^−4 M. Finally, the medium in the 96-well plate was replaced with the peptide solutions. The experimental group used 100 μL of the working concentration peptide solution. The vehicle group consisted of 1 µL of DMSO and 99 µL of serum-free medium. The blank and growth groups both comprised 100 µL of serum-free medium. The loaded 96-well plate was incubated for another 24 h for the treatment. The next day, 10 µL of MTT was added to each well and incubated for 2 h, after which, all media in each well were discarded and substituted with 100 μL of DMSO. After 10 min of shaking, the cell viability in each well was read at a wavelength of 570 nm.

[7] = tested on: U251MG; assay: Antiproliferation assay (MTT); format: cell-based, human; conditions: 24 h
Description: as §4
(§6) At first, after the stock cells were revived, they were transferred into a 75 mL flask with 10 mL of the corresponding culture medium and cultured for 3–5 days at 37 °C until most cells had attached to the flask wall. Then, the culture medium was removed, and 10 mL of PBS was used to wash the wall twice and discarded. Subsequently, 3–4 mL of a trypsin solution was added for 2–3 min to detach the cells from the container wall and then 8–10 mL of FBS was added to stop the digestion reaction. The cell suspension was transferred into a 15 mL tube and centrifuged. The supernatant was removed and 4 mL of complete growth medium was added to this tube to prepare a stock cell suspension. Approximately 10 µL of a mixture containing an equal volume of trypan blue and cell medium was dropped into a chamber to measure the density of cells under the microscope. Based on the cell density, the cell suspension was diluted with foetal bovine serum (FBS) (Sigma-Aldrich, St. Louis, MO, USA) to the standard cell density (H838, MCF-7: 8 × 10^4; U251MG: 5 × 10^4; HCT116: 2 × 10^5; HaCaT: 2 ×10^5 cells/mL). Then, it was seeded into a 96-well plate at 100 μL/well. After 20–24 h incubation, 100 μL of serum-free medium was used to replace the previous FBS medium and the plate was incubated another 4 h for cell starvation. […] After 10 min of shaking, the cell viability in each well was read at a wavelength of 570 nm.

[8] = tested on: HaCaT; assay: Antiproliferation assay (MTT), normal cell cytotoxicity; format: cell-based, human; conditions: HaCaT (normal cell line), 24 h
Description: as §4, §6

[9] = tested on: E. coli (BAA 2340)-infected waxworms; format: in vivo, Galleria mellonella
Description: The larvae of Galleria mellonella were used to evaluate the in vivo antibacterial activity of the peptides. In this assay, the larvae (250 ± 25 mg) (Livefood UK Ltd., Rooks Bridge, UK) of the infected group were infected with 10 μL of a bacterial suspension (1 × 10^7 CFU/mL). After one hour, 10 μL of a peptide solution was injected into each infected larva. As a positive control, infected larvae received 20 mg/kg of rifampicin. The vehicle control consisted of uninfected larvae administered 10 μL of PBS. All larvae were then monitored every 24 h for a duration of five days.

[10] = tested on: E. coli (NCTC 13846); assay: Time-killing kinetic assay; format: cell-based, Escherichia coli; conditions: for killing kinetics (in words): MIC, 2 × MIC and 4 × MIC
Description: (§3) The time-killing kinetic assay was executed to explore the killing efficiency of the peptides against bacteria. […] The bacteria were cultured using the same method as that employed in the antimicrobial activity determination assay. […] All colonies were counted and recorded after the seeded plates had been incubated at 37 °C for 24 h.

[11] = tested on: E. coli (BAA 2340); assay: Time-killing kinetic assay; format: cell-based, Escherichia coli
Description: as §3

[12] = 4 × MIC of peptide, after 120 h of infection

Structure (SMILES) | IC50 [1] | IC50 [2] | IC50 [6] | IC50 [7] | IC50 [8] | mortality of infected larvae [9, 12] [%] | killing kinetics (in words) [10] | time to kill bacteria ([11]; at the MIC) [min] | other results
CC[C@H](C)[C@H](NC(=O)[C@H](CC(N)=O)NC(=O)[C@@H](NC(=O)[C@H](C)N)C(C)C)C(=O)N1CCC[C@H]1C(=O)N[C@@H](Cc1ccccc1)C(=O)N[C@@H](CCCCN)C(=O)N[C@H](C(=O)N[C@@H](Cc1c[nH]cn1)C(=O)N[C@@H](Cc1ccccc1)C(=O)N[C@@H](CCCNC(=N)N)C(=O)N[C@H]1CSSC[C@@H](C(=O)O)NC(=O)[C@H](Cc2ccccc2)NC(=O)[C@H](C)NC(=O)[C@H](C)NC(=O)[C@H](CCCCN)NC1=O)C(C)C [OSTI−1949] (H-AVNIPFKVHFRCKAAFC-OH; disulfide 12-17; N-terminus and C-terminus assumed) | N.I. | N.I. | N.I. | N.I. | N.I. | – | – | – | uptake of SYTOX Green [3]: approximately 50%; uptake of SYTOX Green [4]: approximately 50%; uptake of SYTOX Green [5]: approximately 50%
CC[C@H](C)[C@H](N)C(=O)N[C@@H](CCCCN)C(=O)N[C@@H](Cc1ccccc1)C(=O)N[C@@H](CCCCN)C(=O)N[C@H](C(=O)N[C@@H](Cc1c[nH]cn1)C(=O)N[C@@H](Cc1ccccc1)C(=O)N[C@@H](CCCNC(=N)N)C(=O)N[C@H]1CSSC[C@@H](C(=O)O)NC(=O)[C@H](Cc2ccccc2)NC(=O)[C@H](C)NC(=O)[C@H](C)NC(=O)[C@H](CCCCN)NC1=O)C(C)C [OSTI−1696] (H-IKFKVHFRCKAAFC-OH; disulfide 9-14; N-terminus and C-terminus assumed) | – | N.I. | N.I. | N.I. | – | 20 | almost instant bactericidal activity | ≤ 10 | time to kill bacteria ([11]; at 2 × MIC): ≤ 5 min; time to kill bacteria ([11]; at 4 × MIC): ≤ 5 min
CO[C@H]1/C=C/O[C@@]2(C)Oc3c(C)c(O)c4c(O)c(c(/C=N/N5CCN(C)CC5)c(O)c4c3C2=O)NC(=O)/C(C)=C\C=C\[C@H](C)[C@H](O)[C@@H](C)[C@@H](O)[C@@H](C)[C@H](OC(C)=O)[C@@H]1C [rifampicin, reference compound] | – | – | – | – | – | – | – | – | mortality of infected larvae ([9]; 20 mg/kg, 5 days, positive control): 20%
CC(C)[C@H](NC(=O)[C@H](C)N)C(=O)N[C@@H](CCCCN)C(=O)N[C@@H](CCCNC(=N)N)C(=O)N[C@@H](C)C(=O)N[C@H](C(=O)N[C@@H](CCCCN)C(=O)N[C@@H](CCCNC(=N)N)C(=O)N[C@@H](Cc1ccccc1)C(=O)N[C@@H](CCCCN)C(=O)N[C@H](C(=O)N[C@@H](Cc1c[nH]cn1)C(=O)N[C@@H](Cc1ccccc1)C(=O)N[C@@H](CCCNC(=N)N)C(=O)N[C@H]1CSSC[C@@H](C(=O)O)NC(=O)[C@H](Cc2ccccc2)NC(=O)[C@H](C)NC(=O)[C@H](C)NC(=O)[C@H](CCCCN)NC1=O)C(C)C)C(C)C [OSTI−2363] (H-AVKRAVKRFKVHFRCKAAFC-OH; disulfide 15-20; N-terminus and C-terminus assumed) | N.I. | – | N.I. | N.I. | N.I. | 40 | almost instant bactericidal activity | ≤ 5 | time to kill bacteria ([10]; lowest tested concentration (MIC)): ≤ 5 min; killing kinetics (in words) ([11]; MIC, 2 × MIC and 4 × MIC): almost instant bactericidal activity
CC[C@H](C)[C@H](NC(=O)[C@H](CC(N)=O)NC(=O)[C@@H](NC(=O)[C@H](C)N)C(C)C)C(=O)N1CCC[C@H]1C(=O)N[C@@H](Cc1ccccc1)C(=O)N[C@@H](CCCCN)C(=O)N[C@H](C(=O)N[C@@H](Cc1c[nH]cn1)C(=O)N[C@@H](Cc1ccccc1)C(=O)N[C@@H](CCCCN)C(=O)N[C@H](C(=O)N[C@@H](Cc1c[nH]cn1)C(=O)N[C@@H](Cc1ccccc1)C(=O)N[C@@H](CCCNC(=N)N)C(=O)N[C@H]1CSSC[C@@H](C(=O)O)NC(=O)[C@H](Cc2ccccc2)NC(=O)[C@H](C)NC(=O)[C@H](C)NC(=O)[C@H](CCCCN)NC1=O)C(C)C)C(C)C [OSTI−2461] (H-AVNIPFKVHFKVHFRCKAAFC-OH; disulfide 16-21; N-terminus and C-terminus assumed) | – | – | N.I. | – | N.I. | – | – | – | –
CC[C@H](C)[C@H](NC(=O)[C@@H](N)C(C)C)C(=O)N[C@@H](Cc1ccccc1)C(=O)N[C@@H](CCCCN)C(=O)N[C@H](C(=O)N[C@@H](Cc1ccccc1)C(=O)N[C@@H](Cc1c[nH]c2ccccc12)C(=O)N[C@@H](CCCNC(=N)N)C(=O)N[C@H]1CSSC[C@@H](C(=O)O)NC(=O)[C@H](Cc2ccccc2)NC(=O)[C@H](C)NC(=O)[C@H](C)NC(=O)[C@H](CCCCN)NC1=O)C(C)C [OSTI−1716] (H-VIFKVFWRCKAAFC-OH; disulfide 9-14; N-terminus and C-terminus assumed) | – | – | N.I. | – | – | – | – | – | –
